Laboratory results from patent publication US6706700B2, “14β,15β-methylene-17α-hydroxymethyl-androgens” (Akzo-Nobel, N.V., priority 1999, dated 2004).

What was measured:
human androgen receptor = test: androgenic activity rating (procedures described above; which test underlies the rating is not stated); set-up: key: −: no androgenic activity found; +: androgenic activity found; ++: high androgenic activity; +++: excellent androgenic activity; prodrug; conditions: compounds of the invention; rating scheme of Example 18
Description: Androgenic activity can be measured in various ways. Thus, the potency of androgens can be determined in vitro using the cytoplasmic androgen receptor from human breast tumor cells (MCF-7 cell line); see Bergink, E. W. et al, Comparison of the receptor binding properties of nandrolone and testosterone under in vitro and in vivo conditions, J. Steroid Biochem. 22, 831-836 (1985). It is also possible to use Chinese hamster ovary (CHO) cells transfected with the human androgen receptor (incubation time 16 h, temperature 4° C.) and compared with the affinity of 5α-dihydrotestosterone [according to the procedure described by Bergink, E. W. et al, J. Steroid Biochem. 19, 1563-1570 (1983)]. The transactivative androgen activity of the compounds of the invention can be measured, e.g. in Chinese hamster ovary cells (CHO) transfected with the human androgen receptor (hAR), in combination with a mouse mammary tumor virus (MMTV), and luciferase receptor gene (incubation time 16 h, temperature 37° C.) and compared with the activity of 5α-dihydrotestosterone [according to the procedure described by Schoonen, W. G. E. J. et al, Analyt. Biochem. 261, 222-224 (1998)]. For the in vivo potency determination of androgens the classical Hershberger test can be used. In this test the androgenic (increase in prostate weight) and anabolic activities [increase of the musculus levator ani (MLA)] of a compound are tested in immature castrated rats after daily administration for 7 days; see Hershberger, L. G. et al, Myotrophic activity of 19-Nortestosterone and other steroids determined by modified levator ani muscle method, Proceedings of the society for experimental biology and medicine 83, 175-180 (1953). Additionally, the effect of an androgenic compound on LH suppression can be tested in mature castrated rats according to Kumar, N. et al, The biological activity of 7alpha-methyl-19-nortestosterone is not amplified in male reproductive tract as is that of testosterone, Endocrinology 130, 3677-3683 (1992).
The compounds according to the invention and four reference compounds were tested for drogenic activity (the procedures for which have been described above) and rated according the following scheme: […]

C[C@@H]1CC2=CC(=O)CC[C@@H]2[C@H]2CC[C@]3(C)[C@H](CO)C[C@H]4C[C@]43[C@@H]21 [Example 1, (7α,14β,15β,17α)-17-(Hydroxymethyl)-7-methyl-14,15-methyleneestr-4-en-3-one]
melting point: 137 to 140 °C | Res. (androgenic activity) (human androgen receptor): +++

C[C@@H]1CC2=C(CCC(=O)C2)[C@H]2CC[C@]3(C)[C@H](CO)C[C@H]4C[C@]43[C@H]12 [Example 2, (7α,14,β15β,17α)-17-(Hydroxymethyl)-7-methyl-14,15-methyleneestr-5(10)-en-3-one]
Res. (androgenic activity) (human androgen receptor): +

C[C@@H]1CC2=CC(=O)CCC2=C2CC[C@]3(C)[C@H](CO)C[C@H]4C[C@]43[C@@H]21 [Example 3, (7α,14β,15β17α)-17-(Hydroxymethyl)-7-methyl-14,15-methyleneestra-4,9-dienes-3-one]
Res. (androgenic activity) (human androgen receptor): ++

CC1=C2C[C@@H](C)[C@@H]3[C@H](CC[C@]4(C)[C@H](CO)C[C@H]5C[C@@]534)[C@H]2CCC1=O [Example 4, (7α,14β,15β,17α)-17-(Hydroxymethyl)-4,7-dimethyl-14,15-methyleneestr-4-en-3-one]
Res. (androgenic activity) (human androgen receptor): ++

CC[C@@H]1CC2=CC(=O)CC[C@@H]2[C@H]2CC[C@]3(C)[C@H](CO)C[C@H]4C[C@]43[C@H]12 [Example 5, (7α,14β,15β,17α)-7-Ethyl-17-(hydroxymethyl)-14,15-methyleneestr-4-en-3-one]
Res. (androgenic activity) (human androgen receptor): ++

CC[C@]12CC[C@H]3[C@@H]([C@H](C)CC4=CC(=O)CC[C@@H]43)[C@]13C[C@@H]3C[C@H]2CO [Example 6, (7α,14β,15β,17α)-13-Ethyl-17-(hydroxymethyl)-7-methyl-14,15-methylenegon-4-en-3-one]
Res. (androgenic activity) (human androgen receptor): +++

C[C@H]1[C@H]2C[C@]23[C@H]2[C@H](CC[C@]3(C)[C@@H]1CO)[C@H]1CCC(=O)C=C1C[C@H]2C [Example 7, (7α,14β,15β16β,17α)-17-(Hydroxymethyl)-7,16-dimethyl-14,15-methyleneestra-4-en-3-one]
Res. (androgenic activity) (human androgen receptor): +

C[C@@H]1CC2=CC(=O)CC[C@@H]2[C@H]2CC[C@]3(C)[C@](O)(CO)C[C@H]4C[C@]43[C@@H]21 [Example 8, (7α,14β,15β,17β)-17-Hydroxy-17-(hydroxymethyl)-7-methyl-14,15-methyleneestr-4-en-3-one]
Res. (androgenic activity) (human androgen receptor): +

CC(=O)OC[C@]1(F)C[C@H]2C[C@]23[C@H]2[C@H](CC[C@]13C)[C@H]1CCC(=O)C=C1C[C@H]2C [Example 9a, (7α,14β,15β,17β)-17-[(Acetyloxy)methyl]-17-fluoro-7-methyl-14,15-methyleneestr-4-en-3-one]
Res. (androgenic activity) (human androgen receptor): ++

C[C@@H]1CC2=CC(=O)CC[C@@H]2[C@H]2CC[C@]3(C)[C@](F)(CO)C[C@H]4C[C@]43[C@@H]21 [Example 9b, (7α,14β,15β,17β)-17-fluoro-17-(hydroxymethyl)-7-methyl-14,15-methyleneestra-4-en-3-one]
Res. (androgenic activity) (human androgen receptor): ++

CC(=O)OC[C@]1(F)C[C@H]2C[C@]23[C@@H]2[C@H](C)CC4=C(CCC(=O)C4)[C@H]2CC[C@]13C [Example 10, (7α,14β,15β,17β)-17-[(Acetyloxy)methyl]-17-fluoro-7-methyl-14,15-methyleneestr-5(10)-en-3-one]
Res. (androgenic activity) (human androgen receptor): +

C[C@H](O)[C@@H]1C[C@H]2C[C@]23[C@H]2[C@H](CC[C@]13C)[C@H]1CCC(=O)C=C1C[C@H]2C [Example 11a, (7α,14β,15β,17α,20S)-20-Hydroxy-7-methyl-14,15-methylene-19-norpregn-4-en-3-one]
Res. (androgenic activity) (human androgen receptor): ++

C[C@@H]1CC2=CC(=O)CC[C@@H]2[C@H]2CC[C@]3(C)[C@H]([C@@H](C)O)C[C@H]4C[C@]43[C@@H]21 [Example 11b, (7α,14β,15β,17α,20R)-20-hydroxy-7-methyl-14,15-methylene-19-norpregn-4-en-3-one]
Res. (androgenic activity) (human androgen receptor): +

C[C@@H]1CC2=CC(=O)CC[C@@H]2[C@H]2CC[C@]3(C)[C@H](C(C)(C)O)C[C@H]4C[C@]43[C@@H]21 [Example 12, (7α,14β,15β,17α)-20-Hydroxy-7,20-dimethyl-14,15-methylene-19-norpregn-4-en-3-one]
Res. (androgenic activity) (human androgen receptor): +

CC[C@H](O)[C@@H]1C[C@H]2C[C@]23[C@H]2[C@H](CC[C@]13C)[C@H]1CCC(=O)C=C1C[C@H]2C [Example 13]
Res. (androgenic activity) (human androgen receptor): +

CC(=O)OC[C@@H]1C[C@H]2C[C@]23[C@H]2[C@H](CC[C@]13C)[C@H]1CCC(=O)C=C1C[C@H]2C [Example 14]
Res. (androgenic activity) (human androgen receptor): ++

C[C@@H]1CC2=C[C@@H](O)CC[C@@H]2[C@H]2CC[C@]3(C)[C@H](CO)C[C@H]4C[C@]43[C@@H]21 [Example 15a, (3β,7α,14β,15β,17α)-3-Hydroxy-7-methyl-14,15-methyleneestr-4-ene-17-methanol]
Res. (androgenic activity) (human androgen receptor): +++

C[C@@H]1CC2=C(CC[C@H](O)C2)[C@H]2CC[C@]3(C)[C@H](CO)C[C@H]4C[C@]43[C@H]12 [Example 15b1]
Res. (androgenic activity) (human androgen receptor): pro

C[C@@H]1CC2=C(CC[C@@H](O)C2)[C@H]2CC[C@]3(C)[C@H](CO)C[C@H]4C[C@]43[C@H]12 [Example 15b2, (3α,7α,14β,15β,17α)-3-Hydroxy-7-methyl-14,15-methyleneestr-5(10)-ene-17-methanol]
Res. (androgenic activity) (human androgen receptor): Pro

C[C@@H]1CC2=C[C@@H](O)CC[C@@H]2[C@H]2CC[C@]3(C)[C@](O)(CO)C[C@H]4C[C@]43[C@@H]21 [Example 15c1, (3β,7α,14β,15β,17β)-3,17-Dihydroxy-7-methyl-14,15-methyleneestr-4-ene-17methanol]
Res. (androgenic activity) (human androgen receptor): +

C[C@@H]1CC2=C[C@H](O)CC[C@@H]2[C@H]2CC[C@]3(C)[C@](O)(CO)C[C@H]4C[C@]43[C@@H]21 [Example 15c2, (3α,7α,15β,17β)-3,17-Dihydroxy-7-methyl-14,15-methyleneestr-4-ene-17-methanol]
Res. (androgenic activity) (human androgen receptor): +
